Results published in US20100160442A1, “FORMULATIONS FOR CANCER TREATMENT” (priority 2006, published 2010).
Values after ≈ are worked out from the molar mass of the structure shown. Values joined by “and” are separate entries in the source; they are usually repeats but may differ in a detail not shown here. Equal entries are not always repeated.

What was measured:
[1] = Compounding studies: time for drug substance to dissolve in 25% HPBCD; format: physicochemical
Experimental: 1. 300 mg of BA was added to 30 ml of a 25% HPBCD (containing 0.6% saline) and mixed using a magnetic stirrer. The drug substance dissolved in 4 hours. This is deemed to be an unacceptably long time for a viable manufacturing process and it was decided to evaluate a procedure involving dissolving the drug substance directly in the HPBCD. 2. In a second study 500 mg of BA dissolved in a 50 ml of a 25% HPBCD vehicle (no saline) in approx 90 minutes. The dissolution rate of BA was deemed to be a more acceptable time and provides some prospect for a viable larger scale process. Further excipients could be added after the drug substance has been dissolved.

[2] = Saturated solubility of BA in self emulsifying lipid (SELF) samples, UV 320 nm; format: physicochemical
Experimental: Saturated Solubility Test for Liquid SELF Samples: 2 ml of each liquid SELF was measured into 8 ml screw cap glass bottle using a Finnpipette. Aliquots of 50 mg of the API were then added until the mixture appeared to be saturated. The mixtures were sonicated for 30 minutes, and then observed to see if saturation had been maintained. Aliquots of 25 mg of the API were further added to non-saturated samples while stirring; these were sonicated for a further 30 minutes. This process was repeated until saturation was attained and maintained after sonication.
The liquid samples were then placed in the Variomatic water bath at 25° C. and left to stir for two nights. Each of the SELF samples was purged with nitrogen gas after use to minimize oxidation.
The saturated liquid samples were centrifuged at a speed of 4000 rpm for 10 minutes at 25° C.
Saturated Solubility Test for Semi-Solid SELF Samples: Prior to dispensing, semi-solid lipids were melted in a dry oven at 60° C. The semi-solids were dispensed into screw cap bottles; aliquots of the API were added to attain and maintain saturation. The saturated semi-solids were left stirring at 60° C.
The following day the stirrer was switched off but heating was maintained at 60° C. for 1 hour. This was to allow the dispersed solid particles to sediment. 0.1 ml was taken from the top clear layer of each of the saturated semi-solid samples and diluted with acetonitrile.
UV Analysis: The saturated samples and the lipid vehicles were diluted with acetonitrile at the same ratio. The samples were diluted with acetonitrile to obtain an absorbance between 0.1 to 1. The absorbance of the diluted lipid vehicles were used as the baseline for the absorbance readings of the active sample. The diluted samples were scanned at a fixed wavelength of 320 nm. The concentration of the API was calculated using the E^11 value, derived from the API concentration in acetonitrile.
Saturated Solubility: Saturated solubility was carried out on the six SELF samples (Gattefosse) that were miscible with acetonitrile. These samples were stirred over two nights.
Saturated solubility of freshly prepared lipid samples: Saturated solubility was carried out on each of the freshly prepared semi-solid lipid samples as described above. The results in table 9-8 are based on equilibration of saturated samples over two nights.

Time for drug substance to dissolve ([1]; 300 mg of BA in 30 ml of 25% HPBCD containing 0.6% saline, magnetic stirrer): 4 h | Time for drug substance to dissolve ([1]; 500 mg of BA in 50 ml of 25% HPBCD vehicle (no saline)): approx 90 minutes | Solubility Enhancement vs. water ([2]; SELF 27A): 1074 | Mean Conc. ([2]; SELF 27A (Gattefosse, semi-solid), after 2 nights): 215000 µg/mL | Mean Conc. ([2]; SELF 27A (Gattefosse, semi-solid), after 2 nights, listed as API): 214730 µg/mL | Solubility Enhancement vs. water ([2]; SELF 27B): 524 | Mean Conc. ([2]; SELF 27B (Gattefosse, semi-solid), after 2 nights): 105000 µg/mL | Solubility Enhancement vs. water ([2]; SELF 27D): 699 | Mean Conc. ([2]; SELF 27D (Gattefosse, liquid), after 2 nights): 140000 µg/mL | Solubility Enhancement vs. water ([2]; SELF 27E): 675 and 532 | Mean Conc. ([2]; SELF 27E (Gattefosse, liquid), after 2 nights): 107000 µg/mL | Solubility Enhancement vs. water ([2]; SELF 27F): 804 | Mean Conc. ([2]; SELF 27F (Gattefosse, liquid), after 2 nights): 161000 µg/mL | Solubility Enhancement vs. water ([2]; SELF 27G): 695 | Mean Conc. ([2]; SELF 27G (Gattefosse, semi-solid), after 2 nights): 139000 µg/mL | Mean Conc. ([2]; Water): 200 µg/mL | Mean Conc. ([2]; freshly prepared SELF F1, after 2 nights): 185000 µg/mL | Mean Conc. ([2]; freshly prepared SELF F1, after 2 nights, listed as API): 184760 µg/mL | Mean Conc. ([2]; freshly prepared SELF F3, after 2 nights): 87000 µg/mL | Mean Conc. ([2]; freshly prepared SELF F4, after 2 nights): 42000 µg/mL | Mean Conc. ([2]; freshly prepared SELF F5, after 2 nights): 75000 µg/mL | Mean Conc. ([2]; freshly prepared SELF F6, after 2 nights): 76000 µg/mL | Mean Conc. ([2]; freshly prepared SELF F7, after 2 nights): 135000 µg/mL | solubility ([2]; water, read-out: Mean Conc.): 200 µg/mL (≈ 685 µM)
SMILES: NC(=O)c1ccc(I)c([N+](=O)[O-])c1 [BA, 4-iodo-3-nitrobenzamide]
